According to US11236047B2 (ASTEX THERAPEUTICS LIMITED, priority 2017, dated 2022):

Test system: SJSA-1 cells
Experiment: Protocol B: SJSA-1 CellTiter-Glo luminescent cell viability assay
Settings: Homo sapiens, SJSA-1, read-out: SJSA1 IC50 (μM) (Protocol B), SJSA-1, Protocol B
Protocol: Protocol B: SJSA-1 and SN40R2 Assays
The CellTiter-Glo® Luminescent Cell Viability Assay is a homogeneous method to determine the number of viable cells in culture based on quantitation of the ATP present, which signals the presence of metabolically active cells. […] 100 μl of CTG reagent (Promega #G7573) was added to all wells and luminescence was measured on the topcount. The EC50 values were determined from a sigmoidal 4 parameter curve fit using XLfit in conjunction with Activity Base (IDBS; Guildford, Surrey, UK).

With Cn1cc(C(C)(O)c2cc(F)c3c(c2)C(=O)N(Cc2ccc(Cl)cn2)[C@@]3(OCC2(C(N)=O)CC2)c2ccc(Cl)cc2)cn1 (single isomer, unassigned) [Example 178] as the compound, how does the IC50 read?
The IC50 was 0.1 µM.

For CC(O)(c1cc(F)c2c(c1)C(=O)N(Cc1ncc(Cl)cn1)[C@@]2(OCC1(C(N)=O)CC1)c1ccc(Cl)cc1)C1CCOCC1 (stereo partly drawn) [Example 284, 1-({[(1R)-1-(4-chlorophenyl)-2-[(5-chloropyrimidin-2-yl)methyl]-7-fluoro-5-[1-hydroxy-1-(oxan-4-yl)ethyl]-3-oxo-2,3-dihydro-1H-isoindol-1-yl]oxy}methyl)cyclopropane-1-carboxamide], which IC50 is on record?
The IC50 was 0.017 µM.

For CO[C@]1(c2ccc(Cl)cc2)c2c(F)cc(C(C)(O)c3cn(C)nn3)cc2C(=O)N1Cc1ccc(Cl)cn1 (single isomer, unassigned) [Example 187], which IC50 is on record?
Its IC50 is 0.89 µM.

CO[C@]1(c2ccc(Cl)cc2)c2c(F)cc(C(C)(O)C3CN(C(=O)CO)C3)cc2C(=O)N1Cc1ccc(Cl)cn1 (stereo partly drawn) [Example 391, (3R)-3-(4-chlorophenyl)-2-[(5-chloropyridin-2-yl)methyl]-4-fluoro-6-{1-hydroxy-1-[1-(2-hydroxyacetyl)azetidin-3-yl]ethyl}-3-methoxy-2,3-dihydro-1H-isoindol-1-one] was tested. Which IC50 did it give?
Its IC50 is 0.66 µM.

Which IC50 does the source give for CO[C@]1(c2ccc(Cl)cc2)c2c(F)cc(C(C)(O)c3cnn(CCN(C)C)c3)cc2C(=O)N1Cc1ccc(Cl)cn1 (stereo partly drawn) [Example 191, (3R)-3-(4-Chlorophenyl)-2-[(5-chloropyridin-2-yl)methyl]-6-(1-{1-[2-(dimethylamino)ethyl]-1H-pyrazol-4-yl}-1-hydroxyethyl)-4-fluoro-3-methoxy-2,3-dihydro-1H-isoindol-1-one] here?
The IC50 was 2.5 µM.

CC(C)(O)c1cc(F)c2c(c1)C(=O)N([C@@H](CO)c1ccc(Cl)cn1)[C@@]2(OCC1(CO)CC1)c1ccc(Cl)cc1 [Example 418, (3R)-3-(4-Chlorophenyl)-2-[(1R)-1-(5-chloropyridin-2-yl)-2-hydroxyethyl]-4-fluoro-3-{[1-(hydroxymethyl)cyclopropyl]methoxy}-6-(2-hydroxypropan-2-yl)-2,3-dihydro-1H-isoindol-1-one] was tested. Which IC50 did it give?
Its IC50 is 0.28 µM.

How did the IC50 turn out when Cn1cc(C(C)(O)c2cc(F)c3c(c2)C(=O)N(Cc2ccc(Cl)c[n+]2[O-])[C@@]3(OCC2(O)CC2)c2ccc(Cl)cc2)cn1 (stereo partly drawn) [Example 409, (3R)-2-[(5-chloro-1-oxo-1λ^5-pyridin-2-yl)methyl]-3-(4-chlorophenyl)-4-fluoro-6-[1-hydroxy-1-(1-methyl-1H-pyrazol-4-yl)ethyl]-3-[(1-hydroxycyclopropyl)methoxy]-2,3-dihydro-1H-isoindol-1-one] was run?
Its IC50 is 0.41 µM.

With Cn1cc(C(C)(O)c2cc(F)c3c(c2)C(=O)N(Cc2ccc(Cl)cn2)[C@@]3(OCCO)c2ccc(Cl)cc2)cn1 (stereo partly drawn) [Example 213, (3R)-3-(4-chlorophenyl)-2-[(5-chloropyridin-2-yl)methyl]-4-fluoro-6-[1-hydroxy-1-(1-methyl-1H-pyrazol-4-yl)ethyl]-3-(2-hydroxyethoxy)-2,3-dihydro-1H-isoindol-1-one] as the compound, how does the IC50 read?
The IC50 was 0.25 µM.

Which IC50 does the source give for CC(O)(c1cc(F)c2c(c1)C(=O)N(Cc1ccc(Cl)cn1)[C@@]2(OCC1(C(N)=O)CC1)c1ccc(Cl)cc1)c1cscn1 (single isomer, unassigned) [Example 193] here?
The IC50 was 0.14 µM.

Same assay, conditions: Homo sapiens, SJSA-1, read-out: SJSA1 IC50 (μM), Protocol B, SJSA-1

For CO[C@]1(c2ccc(Cl)cc2)c2c(F)cc(C(C)(O)C3CN(C(=O)N(C)C)C3)cc2C(=O)N1Cc1ccc(C#N)cn1 (stereo partly drawn) [Example 393, 3-{1-[(1R)-1-(4-chlorophenyl)-2-[(5-cyanopyridin-2-yl)methyl]-7-fluoro-1-methoxy-3-oxo-2,3-dihydro-1H-isoindol-5-yl]-1-hydroxyethyl}-N,N-dimethylazetidine-1-carboxamide], which IC50 is on record?
The IC50 was 0.79 µM.

Same assay, conditions: read-out: SJSA1 IC50 (μM) (Protocol B); SJSA-1, Protocol B

Which IC50 does the source give for [2H]C([2H])([2H])OCC(C)(O)c1cc(F)c2c(c1)C(=O)N(C([2H])([2H])c1ccc(Cl)cn1)[C@@]2(O[C@H]1CCOC1)c1ccc(Cl)cc1 (single isomer, unassigned) [Example 142] here?
The IC50 was 0.23 µM.

Cn1cc(C(C)(O)c2cc(F)c3c(c2)C(=O)N(Cc2ncc(Cl)cn2)[C@@]3(OCC2(O)CC2)c2ccc(Cl)cc2)cn1 (single isomer, unassigned) [Example 203] was tested. Which IC50 did it give?
Its IC50 is 0.08 µM.

Cn1cc(C(C)(O)c2cc(F)c3c(c2)C(=O)N(Cc2ncc(Cl)cn2)[C@@]3(OCC2(CO)CC2)c2ccc(Cl)cc2)cn1 (single isomer, unassigned) [Example 349] was tested. Which IC50 did it give?
The IC50 was 0.028 µM.

COc1ccc(CN2C(=O)c3cc(C(C)(O)c4cnn(C)c4)cc(F)c3[C@]2(OCC2(CO)CC2)c2ccc(Cl)cc2)cn1 (stereo partly drawn) [Example 219, (3R)-3-(4-chlorophenyl)-4-fluoro-6-[1-hydroxy-1-(1-methyl-1H-pyrazol-4-yl)ethyl]-3-{[1-(hydroxymethyl)cyclopropyl]methoxy}-2-[(6-methoxypyridin-3-yl)methyl]-2,3-dihydro-1H-isoindol-1-one] was tested. Which IC50 did it give?
The IC50 was 0.11 µM.

For CN1CCN(CC(C)(O)c2cc(F)c3c(c2)C(=O)N(Cc2ccc(C#N)cn2)[C@@]3(OCC2(C#N)CC2)c2ccc(Cl)cc2)CC1 (single isomer, unassigned) [Example 278], which IC50 is on record?
The IC50 was 2.6 µM.

For CO[C@]1(c2ccc(Cl)cc2)c2c(F)cc(C(C)(O)c3nccs3)cc2C(=O)N1Cc1ccc(Cl)cn1 (single isomer, unassigned) [Example 166], which IC50 is on record?
Its IC50 is 3.8 µM.

How did the IC50 turn out when CC(O)(c1cc(F)c2c(c1)C(=O)N(Cc1ncc(Cl)cn1)[C@@]2(OCC1(C(N)=O)CC1)c1ccc(Cl)cc1)C1CCC1 (single isomer, unassigned) [Example 403] was run?
Its IC50 is 1.2 µM.

Which IC50 does the source give for CC(O)(CN1CCCC1)c1cc(F)c2c(c1)C(=O)N(Cc1ccc(C#N)cn1)[C@@]2(OCC1(C#N)CC1)c1ccc(Cl)cc1 (single isomer, unassigned) [Example 276] here?
The IC50 was 2.5 µM.

For CO[C@]1(c2ccc(Cl)cc2)c2c(F)cc(C(C)(O)C3CN(C(C)=O)C3)cc2C(=O)N1Cc1ccc(Cl)cn1 (stereo partly drawn) [Example 390, (3R)-6-[1-(1-acetylazetidin-3-yl)-1-hydroxyethyl]-3-(4-chlorophenyl)-2-[(5-chloropyridin-2-yl)methyl]-4-fluoro-3-methoxy-2,3-dihydro-1H-isoindol-1-one], which IC50 is on record?
Its IC50 is 0.63 µM.

With CO[C@]1(c2ccc(Cl)cc2)c2c(F)cc(C(C)(O)c3cn(C)c(C)n3)cc2C(=O)N1Cc1ccc(Cl)cn1 (stereo partly drawn) [Example 161, (3R)-3-(4-Chlorophenyl)-2-[(5-chloropyridin-2-yl)methyl]-6-[1-(1,2-dimethyl-1H-imidazol-4-yl)-1-hydroxyethyl]-4-fluoro-3-methoxy-2,3-dihydro-1H-isoindol-1-one] as the compound, how does the IC50 read?
Its IC50 is 4.3 µM.

Same assay, conditions: read-out: SJSA1 IC50; Protocol B, SJSA-1

How did the IC50 turn out when [2H]C([2H])(O)C1(C([2H])([2H])O[C@]2(c3ccc(Cl)cc3)c3c(F)cc(C(O)(CC)c4cn(C)cn4)cc3C(=O)N2Cc2ccc(C#N)cn2)CC1 (stereo partly drawn) [Example 440, 6-{[(1R)-1-(4-chlorophenyl)-7-fluoro-1-({1-[hydroxy(^2H2)methyl]cyclopropyl}(^2H2)methoxy)-5-[1-hydroxy-1-(1-methyl-1H-imidazol-4-yl)propyl]-3-oxo-2,3-dihydro-1H-isoindol-2-yl]methyl}pyridine-3-carbonitrile] was run?
The IC50 was 1.9 µM.

With CCC(O)(c1cc(F)c2c(c1)C(=O)N(Cc1ncc(C#N)cn1)[C@@]2(OC[C@H]1C[C@H](O)C1)c1ccc(Cl)cc1)c1cn(C)cn1 (single isomer, unassigned) [Example 484] as the compound, how does the IC50 read?
The IC50 was 4.9 µM.

How did the IC50 turn out when CCC(O)(CN1CCN(C)CC1)c1cc(F)c2c(c1)C(=O)N(Cc1ncc(Cl)cn1)[C@@]2(OCCO)c1ccc(Cl)cc1 (single isomer, unassigned) [Example 532] was run?
The IC50 was 0.14 µM.
